Measurements reported in patent US20250263496A1, “Neutrophil-Activating Therapy for the Treatment of Cancer” (The Board of Trustees of the Leland Stanford Junior …, priority 2024, published 2025).

Assays:
B16 cells = assay: Mouse in vitro cytotoxicity (EuTDA), B16 cells co-cultured with neutrophils; format: cell-based; settings: for effect of agent on ex vivo killing of tumor cells by neutrophils: neutrophils from treated tumors stimulated with neutrophil-activating therapy
Procedure: B16 tumors were treated by intratumoral injection of TNF+anti-CD40+anti-gp75 and harvested 12 hours post-treatment. Tumors were dissected away from any surrounding fat, minced, and digested in 5 mg/ml collagenase IV (Worthington) plus 0.1 mg/ml DNase I (Sigma) with continuous mixing by magnetic stir bars for 20 minutes at 37° C. in RPMI-1640 (Gibco) with 2% FBS. Following digestion, tissue was mashed through a […] cell strainer (Falcon) and washed. For some studies, bone marrow was harvested by grinding bones from tumor-naive untreated mice in a mortar and pestle and mashing through a […] strainer (Falcon). Neutrophils were isolated from tumor and bone marrow samples with the MojoSort Mouse Ly6G Selection Kit (BioLegend), according to the manufacturer's instructions, and used in the cytotoxicity assay.
Cytotoxicity assays were conducted using the EuTDA assay from the DELFIA TRF cytotoxicity kit (PerkinElmer) according to the manufacturer's instructions. Briefly, B16 cells were labeled for 10 minutes with BATDA, and 5×10^3 labeled cells were added per well to a 96 well V-bottom plate in RPMI-1640. Neutrophils were added at a ratio of 10:1 unless otherwise stated. All co-cultures were conducted in the presence of TNF (10 ng/ml), anti-CD40 (1 μg/ml), anti-gp75 (1 μg/ml), and 10% active mouse C57BL/6 complement serum (Innovative Research), except where indicated otherwise. Mouse C57BL/6 complement serum was heat-inactivated for 40 minutes at 57° C. where inactivation is specified. In some experiments, mouse IgG2a isotype control (1 μg/ml, isotype control for anti-gp75, clone C1.18.4, Bio X Cell), anti-mouse CD16/CD32 (10 μg/ml, clone 2.4G2, Bio X Cell), recombinant mouse C5a (50 nM, R&D Systems), anti-C5a (25 μg/ml, clone 295108, R&D Systems), rat IgG2a isotype control (25 μg/ml, isotype control for anti-C5a, clone 2A3, Bio X Cell), anti-C5AR1 (5 μg/ml, clone 20/70, BioLegend), rat IgG2b isotype control (5 μg/ml, isotype control for anti-C5AR1, clone LTF-2, Bio X Cell), SC57461A (10 μM, Cayman Chemical), CP-105696 (1 μM, Sigma), topiroxostat (10 μM, MedChem Express), or DMSO (vehicle for SC57461A, CP-105696, and topiroxostat) were added to the wells with the B16 and neutrophils. After 4 hours of co-culture at 37° C., supernatant was taken from the wells, Europium solution was added, and TDA released from lysed B16 cells was detected by […] on a Victor X4 fluorescence microplate reader (PerkinElmer). Percent maximal lysis was determined by calculating the specific release of TDA using the formula: (experimental release−spontaneous release)/(maximum release −spontaneous release), where spontaneous release was determined by wells containing no neutrophils and maximum release was determined by wells with lysis buffer added.
For trogocytosis studies investigating transfer of tumor-binding antibody, anti-gp75 labeled with AF647 (clone TA99, Novus Biologicals) was used in place of unlabeled anti-gp75. For studies investigating transfer of B16 cell membrane, DiD′ Solid (ThermoFisher Scientific) was reconstituted in DMSO at 10 mg/ml and diluted to a working solution of 5 μg/ml in serum-free DMEM. B16 cells were labeled in this solution for 20 minutes at 37° C. at 1×10^6 cells/ml. Labeled B16 was washed 3 times in warm media before being added to the co-culture wells with the neutrophils. Following co-culture, flow cytometry was used to identify DiD signal in neutrophils.

B16 tumors = assay: TUNEL staining of cell death in B16 tumors; format: in vivo, mouse; settings: agent given prior to neutrophil-activating therapy
Procedure: Tumors were dissected away from surrounding fat, fixed in 2% paraformaldehyde for 2 hours at 4° C., equilibrated in a 30% sucrose solution at 4° C., and embedded and frozen in O.C.T. Compound (Tissue-Tek). Slides were cut to […] and blocked with 1% BSA and 10% serum matched to the secondary antibody species. The following antibodies were used for immunofluorescence: PE anti-Ly6G (clone 1A8, BioLegend), DyLight 650 anti-gp75 (clone TA99, Bio X Cell, labeled using DyLight 650 NHS Ester (Thermo Scientific)), fluorescein anti-gp75 (clone TA99, Bio X Cell, labeled using NHS-Fluorescein (Thermo Scientific)), FITC anti-DNA/RNA damage (clone 15A3, recognizing 8-hydroxy-2′-deoxyguanosine/8-oxo-7,8-dihydroguanine/8-oxo-7,8-dihydroguanosine, Abcam), and AF647 anti-C3 (clone 11H9, Novus Biologicals). DAPI (Invitrogen) was stained at 1 μg/ml. FITC/fluorescein signal was amplified using AF488 anti-FITC (ThermoFisher Scientific), and PE was amplified using biotin anti-PE (clone PE001, BioLegend) followed by DyLight 594 streptavidin (BioLegend) or DyLight 649 streptavidin (BioLegend). Prior to use of biotinylated antibodies, endogenous biotin was blocked using the Avidin/Biotin Blocking Kit (Vector Laboratories). Prior to DNA/RNA damage staining, sections were permeabilized with 0.1% Triton X-100 in 0.1% sodium citrate. TUNEL (Terminal deoxynucleotidyl transferase dUTP nick end labeling) staining was performed using the In Situ Cell Death Detection Kit, TMR Red (Roche) according to the manufacturer's instructions. […] All parameters that were quantified were acquired with identical microscope settings and adjusted identically in Photoshop, and all adjustments were applied equally across the entire tumor. Quantification was performed in ImageJ, using the wand tool on the overlaid multichannel image to draw a border around the tumor and then measuring the percent area within that border with signal for the channel of the marker quantified.

naive neutrophils = assay: Mouse in vitro neutrophil stimulations; format: cell-based
Procedure: Mouse in vitro neutrophil stimulations. Bone marrow was harvested by grinding bones in a mortar and pestle and mashing through a […] strainer (Falcon). Neutrophils were isolated by negative selection with the MojoSort Mouse Neutrophil Isolation Kit (BioLegend). Following isolation, neutrophils were plated in Opti-MEM (Gibco) at 1×10^5 cells in 100 μl and stimulated with 10 ng/ml TNF, 1 μg/ml anti-CD40, 1 μg/ml anti-gp75, and/or 50 nM recombinant mouse C5a (R&D Systems) for 30 minutes at 37° C. After 30 minutes, the supernatant was collected, centrifuged to remove cells and debris, and analyzed for LTB4 using the Leukotriene B4 ELISA kit (Cayman Chemical 520111) as described above. Additionally, stimulated neutrophils were stained for activation markers and analyzed by flow cytometry as described above.

| Molecule | effect of agent on ex vivo killing of tumor cells by neutrophils (B16 cells) | effect of agent on treatment-induced tumor cell death (B16 tumors) | requirement for ex vivo killing of B16 cells by tumor-infiltrating neutrophils (B16 cells) | neutrophil activation (naive neutrophils; in vitro) | LTB4 production by neutrophils (naive neutrophils; in vitro stimulation) |
| --- | --- | --- | --- | --- | --- |
| O=C(O)C1(c2ccc3c(c2)OC[C@H](Cc2ccc(-c4ccccc4)cc2)[C@H]3O)CCCC1 [CP-105696] | prevented ex vivo killing of tumor cells |  |  |  |  |
| N[C@@H](CCC(=O)N[C@@H](CS)C(=O)NCC(=O)O)C(=O)O [GSH, Reduced L-glutathione] | blocked ex vivo killing of tumor cells | decreased tumor cell death in vivo |  |  |  |
| CN(CCCOc1ccc(Cc2ccccc2)cc1)CCC(=O)O.Cl [SC57461A] | prevented ex vivo killing of tumor cells | prevented treatment-induced tumor cell death |  |  |  |
| C5a: recombinant mouse C5a (R&D Systems) (protein, UniProt P06684 679-755, looked up, C5a anaphylatoxin) C5a anaphylatoxin: NLHLLRQKIEEQAAKYKHSVPKKCCYDGARVNFYETCEERVARVTIGPLCIRAFNECCTIANKIRKESPHKPVQLGR |  |  | required C5a or serum containing functional complement | activated neutrophils | induced LTB4 |
| catalase: enzyme neutralizing hydrogen peroxide (C40, Sigma) (protein, UniProt P00432 2-527, looked up) Catalase: ADNRDPASDQMKHWKEQRAAQKPDVLTTGGGNPVGDKLNSLTVGPRGPLLVQDVVFTDEMAHFDRERIPERVVHAKGAGAFGYFEVTHDITRYSKAKVFEHIGKRTPIAVRFSTVAGESGSADTVRDPRGFAVKFYTEDGNWDLVGNNTPIFFIRDALLFPSFIHSQKRNPQTHLKDPDMVWDFWSLRPESLHQVSFLFSDRGIPDGHRHMNGYGSHTFKLVNANGEAVYCKFHYKTDQGIKNLSVEDAARLAHEDPDYGLRDLFNAIATGNYPSWTLYIQVMTFSEAEIFPFNPFDLTKVWPHGDYPLIPVGKLVLNRNPVNYFAEVEQLAFDPSNMPPGIEPSPDKMLQGRLFAYPDTHRHRLGPNYLQIPVNCPYRARVANYQRDGPMCMMDNQGGAPNYYPNSFSAPEHQPSALEHRTHFSGDVQRFNSANDDNVTQVRTFYLKVLNEEQRKRLCENIAGHLKDAQLFIQKKAVKNFSDVHPEYGSRIQALLDKYNEEKPKNAVHTYVQHGSHLSAREKANL | blocked ex vivo killing of tumor cells |  |  |  |  |
